Results on one molecule are retold here after patent publication US11865090B2, “Tumor suppressive microRNAs for cancer therapy” (Hadasit Medical Research Services and Development Ltd., priority 2018, dated 2024).

Series [1] deals with miR-122. Description: In vivo miR-122 and CD24 mRNA levels after injection into BALB/C mice. The protocol: As shown in FIG. 8A—SR1078 agent (ROR alpha activator) was injected (1-5 μM) into BALB/C mice and was able to induce miR-122 expression within 3 hours, as indicated by the increased relative expression levels of miR-122 in the liver. miRNA-122 increased expression is in hepatocytes (“producing cells”).
The CD24 gene, the protein product of which is expressed on hepatic progenitors, is a target of miR-122.

Series [2] relates to miR-122 promoter. Description: miR-122 promoter luciferase reporter (PmiR-122-900) in BNL-1ME cells. The settings on record: 10 μM overnight, measured 48 hours post transfection, normalized to Renilla. The class given is cell-based, mouse. How it is done:
(§1) Huh7 cells or BNL-1ME cells were transfected with the reporter constructs PmiR-122-900 (wt) or PmiR-122-900 mutated (mut) at RORα binding site. These constructs harbour about 1 kb of miR-122 promoter sequence (wt or mutated at the ROR alpha binding site), ligated to a luciferase (Luc) reporter gene. […] Controls included incubation of the cells with 0.4% DMSO (negative control), or with 75 μM Lauric acid (LA), which is a known activator of ROR-alpha. Luciferase activity was measured 48 hours post transfection and normalized to Renilla Luciferase activity expressed from a co-transfected pRL plasmid.
In general terms: A reporter such as luciferase makes a cellular process visible.

A further series has as its system miR-34a. Kind of series: miR-34a expression and secretion in Huh7 cells (RT-qPCR). The class given is cell-based, human. The settings on record: 10 μM overnight. The protocol: Huh7 cells treated with ROR-alpha agonist SR1078 (10 μM) overnight (o/n). Upon treatment, primary miR-34a expression levels and mature miR-34a secretion were elevated. miR-34a levels were tested in the cells and in their culture medium using RT-qPCR. The results clearly show elevation in the levels of miR-34a in the cells, as well as a marked elevation of the miR-34a in the external medium, indicating the miR-34a is secreted from the cells.
(Real-time PCR tracks product formation cycle by cycle.)

The subject of series [3] is miR-122 promoter. Description: miR-122 promoter luciferase reporter (PmiR-122-900) in Huh7 cells. Particulars: 10 μM overnight, measured 48 hours post transfection, normalized to Renilla. The class given is cell-based, human. The protocol:
as §1

For series [4], the system named is miR-122. Description: qRT-PCR of miR-122 in medium of Huh7 cells. The class given is cell-based, human. Particulars: 10 μM for 24 hours, normalized to spiked miR-39. How it is done: Shown in FIG. 4C is qRT-PCR analysis of miR-122 and miR-18 (negative control) in RNA extracted from the medium of Huh7 cells treated with 0.4% DMSO, 75 μM lauric acid (LA) or 10 μM RORα agonist (SR1078) for 24 hours. The microRNA levels in the cells' medium were normalized to spiked C. elegance miR-39.

Series [5] concerns miR-122. Kind of series: AGPAT1-3'UTR (miR-122 target site) luciferase reporter in Huh7 cells. The class given is cell-based, human. The settings on record: 10 μM for 24 hours, DNMT1 3'-UTR as negative control. How it is done:
Next, Huh7 cells were transfected with a reporter plasmid carrying the human AGPAT1-3′UTR (miR-122 target site) or a negative control reporter plasmid, DNMT1 3′-UTR. Cells were treated for 24 hours with: 0.4% DMSO, or with 75 μM lauric acid (LA) or with RORα agonist (10 μM SR1078) for 24 hours. Presented in FIG. 4B are bar graphs showing the results of the Luciferase assay. Luciferase activity was measured 48 hours post transfection and normalized to Renilla Luciferase activity expressed from a co-transfected pRL plasmid.

The test system of series [6] is miR-122. Kind of series: In vivo miR-122 and CD24 mRNA levels after injection into MDR2 knockout mice. Particulars: three months old MDR2 KO mice, 6 hours after administration. The protocol:
Similar effect is also apparent in measurements performed 6 hours after administration of the inducing agent, to three months old MDR2 knockout (KO) mice (which is a mice that develops liver cancer). This is presented in FIGS. 8C-D, which show the increase in relative levels of miR-122 (FIG. 8C) in liver extracts (hepatocytes) and the reciprocal reduction of CD24 relative expression levels (FIG. 8D), in progenitor cells.

`O=C(Nc1ccc(C(O)(C(F)(F)F)C(F)(F)F)cc1)c1ccc(C(F)(F)F)cc1` [SR1078]: the “relative levels (RQ) of mRNA of CD24 in hepatic progenitor cells” value with miR-122 [1] (after injection of SR1078) was “reduced”. In addition, in the series with miR-122 [1] (injected (1-5 μM), 3 hours), the “relative expression levels of miR-122 in the liver” value is reported as “increased”. Besides, in the series with miR-122 promoter [2], the “miR-122 promoter activity (Luciferase reporter)” value is recorded as “activation of the miR-122 promoter”. Also, the “mature miR-34a secretion” value in the series on miR-34a (RT-qPCR in culture medium) is reported as “elevated”. Moreover, in the series on miR-34a (RT-qPCR in the cells), the “primary miR-34a expression levels” value is “elevated”. Also, the “miR-122 promoter activity (Luciferase reporter)” value in the series with miR-122 promoter [3] was “activation of the miR-122 promoter”. Further, the “miRNA-122 levels in the medium” value in the series with miR-122 [4] was “increase”. In addition, the “expression of active miR-122 acting on AGPAT1 reporter construct (Luciferase assay)” value with miR-122 [5] is given as “increased expression of active miRNA”. In the series on miR-122 [6], the “CD24 relative expression levels in progenitor cells” value is “reduction” and the “relative levels of miR-122 in liver extracts (hepatocytes)” value is on record as “increase”.
